# Legend:
# soybeans (Fukuyutaka) [1] = experiment: Experimental Example 2: soil irrigation with composition comprising rhizobium materials, number of root nodules; assay type: in vivo, soybean
# Procedure: (§1) For each of the following treatment, to a mixture of rhizobium materials (rhizobium and azospirillum) mixed with water at a proportion of 10 g/L, SF, SL, or RL was added in the following amount to prepare a solution comprising the rhizobium materials and SF, SL, or RL (a composition for promoting root nodule formation).
# A 9 cm poly pot was filled with culture soil and seeded with three seeds of soybeans (Fukuyutaka) in each pot.
# (§2) After seeding, the seeds were cultivated in a greenhouse set at 28° C. during the day (14h) and 18° C. at night (10h).
# (§3) Seven days after the seeding, the soybeans in each pot were thinned to one plant, and each pot was irrigated with 4.3 ml of the composition for promoting root nodule formation (in the treatment T1, a mixture of rhizobium materials (rhizobium and azospirillum) mixed with water at a proportion of 10 g/L).
# (§4) Twenty-one days after the irrigation, the roots were washed with water so as not to remove root nodules, the culture soil was removed, and then, the root nodules formed on the roots were collected.
# (§5) After the seeding, each pot was fertilized with ½ Hoagland solution (50 mL) once a week. In addition, experiments were conducted on eight pots (eight plants) in each treatment.
# (§6) A plurality of experiments were conducted by changing the type of the composition for promoting root nodule formation and the like. Tables 2-1 and 2-2 show the date of seeding, the date of irrigating, the date of investigating the number of root nodules, the composition for promoting root nodule formation, and the investigation result of the number of root nodules. Note that the number of root nodules is indicated by a relative value with T1 taken as 100, with a numerical value in parentheses indicating the average number of root nodules actually measured (pieces/plant).
# soybeans (Fukuyutaka) [2] = experiment: Experimental Example 4: soil irrigation with biosurfactant and/or KVP, root nodule number and weight, root weight; assay type: in vivo, soybean; conditions: with rhizobium materials
# Procedure: as §1, with “treatments,” for “treatment,”
# A 9 cm poly pot was filled with sterilized fertilizer-free culture soil (Heiwa) and seeded three seeds of soybeans (Fukuyutaka) in each pot.
# as §2, §3, §4, §5
# as §6, with “4-1” for “2-1”, “4-2” for “2-2”, “Tl” for “T1”, “(pieces/plant). In addition, fresh root nodule weight means the weight of root nodules before drying on the day of collection and is indicated by a relative value with Tl taken as 100. Dried underground part weight means the weight of roots dried for 48 hours at 80° C. and indicated by a relative value with Tl taken as 100.” for “(pieces/plant).”
# [3] = Table 2-1, irrigation 4.3 ml, diluted 100 times
# [4] = Table 2-1, irrigation, diluted 500 times
# [5] = Table 2-1, irrigation, diluted 1000 times
# [6] = Table 4-1, single agent diluted 1000 times
# [7] = Table 4-1, single agent diluted 5000 times
# [8] = Table 4-1, single agent diluted 10000 times
substance,measurement,setting,value
surfactin Na [SF],"Number of Root Nodules, average number actually measured",soybeans (Fukuyutaka) [1]; [3],15.9 pieces/plant
same,"Number of Root Nodules, relative value with T1 taken as 100",soybeans (Fukuyutaka) [1]; [3],109
same,"Number of Root Nodules, average number actually measured",soybeans (Fukuyutaka) [1]; [4],16.3 pieces/plant
same,"Number of Root Nodules, relative value with T1 taken as 100",soybeans (Fukuyutaka) [1]; [4],111
same,"Number of Root Nodules, average number actually measured",soybeans (Fukuyutaka) [1]; [5],16.9 pieces/plant
same,"Number of Root Nodules, relative value with T1 taken as 100",soybeans (Fukuyutaka) [1]; [5],115
same,"Dried Underground Part Weight, relative value with T1 taken as 100",soybeans (Fukuyutaka) [2]; [6],101
same,"Fresh Root Nodule Weight, relative value with T1 taken as 100",soybeans (Fukuyutaka) [2]; [6],124
same,"Number of Root Nodules, average number actually measured",soybeans (Fukuyutaka) [2]; [6],19.6 pieces/plant
same,"Number of Root Nodules, relative value with T1 taken as 100",soybeans (Fukuyutaka) [2]; [6],114
same,"Dried Underground Part Weight, relative value with T1 taken as 100",soybeans (Fukuyutaka) [2]; [7],103
same,"Fresh Root Nodule Weight, relative value with T1 taken as 100",soybeans (Fukuyutaka) [2]; [7],121
same,"Number of Root Nodules, average number actually measured",soybeans (Fukuyutaka) [2]; [7],19.0 pieces/plant
same,"Number of Root Nodules, relative value with T1 taken as 100",soybeans (Fukuyutaka) [2]; [7],110
same,"Dried Underground Part Weight, relative value with T1 taken as 100",soybeans (Fukuyutaka) [2]; [8],99
same,"Fresh Root Nodule Weight, relative value with T1 taken as 100",soybeans (Fukuyutaka) [2]; [8],107
same,"Number of Root Nodules, average number actually measured",soybeans (Fukuyutaka) [2]; [8],18.0 pieces/plant
same,"Number of Root Nodules, relative value with T1 taken as 100",soybeans (Fukuyutaka) [2]; [8],104
